# Values quoted from earlier work as cited in patent EP4092126A1, “A METHOD OF ENZYMATIC REDUCTION OF THE OXIDIZED NICOTINAMIDE ADENINE DINUCLEOTIDE AND CARBOXYLIC ACIDS” (priority 2021, dated 2022).
# Like-named read-outs stand apart in the source and are kept apart here.
# Key:
# [1] = tested on: tungsten aldehyde oxidoreductase (AOR) from A. aromaticum; conditions: 1 mM benzaldehyde, re-oxidized with NAD+, pH 8.0, 28°C, anaerobic conditions
# AOR = molecular target: T1, AOR (Aromatoleum aromaticum, UniProt Q5P142+Q5P143); conditions: 1 mM benzaldehyde, pH 8.0, 28°C, anaerobic; read-out: Km versus NAD^+
# T1 sequence (Q5P143 1-616): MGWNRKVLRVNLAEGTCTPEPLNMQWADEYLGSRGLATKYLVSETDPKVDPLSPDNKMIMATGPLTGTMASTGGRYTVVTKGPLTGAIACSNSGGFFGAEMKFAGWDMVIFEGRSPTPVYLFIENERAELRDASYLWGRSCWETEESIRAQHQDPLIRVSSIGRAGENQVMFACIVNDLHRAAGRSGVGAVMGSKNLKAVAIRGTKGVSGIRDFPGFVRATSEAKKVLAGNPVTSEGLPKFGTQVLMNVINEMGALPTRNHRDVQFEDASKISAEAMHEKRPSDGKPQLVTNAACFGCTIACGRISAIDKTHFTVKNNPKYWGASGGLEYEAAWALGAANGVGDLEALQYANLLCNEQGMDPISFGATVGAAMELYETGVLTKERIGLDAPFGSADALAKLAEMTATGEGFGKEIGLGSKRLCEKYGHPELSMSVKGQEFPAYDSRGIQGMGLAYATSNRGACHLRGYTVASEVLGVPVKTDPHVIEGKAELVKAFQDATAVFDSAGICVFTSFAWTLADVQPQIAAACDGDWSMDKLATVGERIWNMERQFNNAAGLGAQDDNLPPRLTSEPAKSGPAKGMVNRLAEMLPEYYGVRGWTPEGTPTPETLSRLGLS
# T1 sequence (Q5P142 1-424): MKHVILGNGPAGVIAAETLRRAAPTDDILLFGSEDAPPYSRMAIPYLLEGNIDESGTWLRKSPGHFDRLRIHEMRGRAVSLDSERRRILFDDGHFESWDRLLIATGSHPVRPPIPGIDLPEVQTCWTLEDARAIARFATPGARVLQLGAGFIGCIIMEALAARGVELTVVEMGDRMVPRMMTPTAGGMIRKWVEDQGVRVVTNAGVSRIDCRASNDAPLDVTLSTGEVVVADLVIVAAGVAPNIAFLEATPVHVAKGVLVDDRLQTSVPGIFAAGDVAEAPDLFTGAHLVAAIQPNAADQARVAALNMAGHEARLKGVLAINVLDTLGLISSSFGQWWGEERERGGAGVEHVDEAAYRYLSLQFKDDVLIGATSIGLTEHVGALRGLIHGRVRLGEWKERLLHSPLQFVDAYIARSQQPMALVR
# T1 sequence (Q5P144 1-158 partner): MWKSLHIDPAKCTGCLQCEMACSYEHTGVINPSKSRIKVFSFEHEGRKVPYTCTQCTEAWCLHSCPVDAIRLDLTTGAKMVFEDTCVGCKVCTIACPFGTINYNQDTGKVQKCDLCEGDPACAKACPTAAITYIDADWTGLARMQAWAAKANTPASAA
# [2] = molecular target: [NiFe] dehydrogenase from Ralstonia eutropha (Cupriavidus necator, UniProt P22317+P22320)
# Sequence of [NiFe] dehydrogenase from Ralstonia eutropha (Cupriavidus necator, UniProt P22317+P22320) (P22318 whole entry): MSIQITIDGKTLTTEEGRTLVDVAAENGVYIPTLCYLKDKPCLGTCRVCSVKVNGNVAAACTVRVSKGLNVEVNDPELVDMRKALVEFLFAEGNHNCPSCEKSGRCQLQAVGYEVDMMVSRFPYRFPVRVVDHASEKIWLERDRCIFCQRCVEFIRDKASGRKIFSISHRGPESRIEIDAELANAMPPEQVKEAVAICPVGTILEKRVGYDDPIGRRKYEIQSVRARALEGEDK
# Sequence of [NiFe] dehydrogenase from Ralstonia eutropha (Cupriavidus necator, UniProt P22317+P22320) (P22320 1-464): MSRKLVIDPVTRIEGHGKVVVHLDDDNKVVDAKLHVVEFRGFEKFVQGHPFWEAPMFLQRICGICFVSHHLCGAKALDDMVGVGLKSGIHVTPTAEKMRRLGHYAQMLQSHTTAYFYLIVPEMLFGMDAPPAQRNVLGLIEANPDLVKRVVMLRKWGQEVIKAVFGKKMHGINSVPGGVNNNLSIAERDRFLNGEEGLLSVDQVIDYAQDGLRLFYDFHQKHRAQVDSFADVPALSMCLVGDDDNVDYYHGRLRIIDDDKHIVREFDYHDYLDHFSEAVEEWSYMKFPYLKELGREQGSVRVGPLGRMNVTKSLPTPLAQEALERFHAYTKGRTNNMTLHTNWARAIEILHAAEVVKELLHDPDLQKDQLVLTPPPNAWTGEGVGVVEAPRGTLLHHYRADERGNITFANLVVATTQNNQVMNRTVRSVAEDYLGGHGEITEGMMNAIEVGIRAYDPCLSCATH
# Sequence of [NiFe] dehydrogenase from Ralstonia eutropha (Cupriavidus necator, UniProt P22317+P22320) (P22319 whole entry, further chain): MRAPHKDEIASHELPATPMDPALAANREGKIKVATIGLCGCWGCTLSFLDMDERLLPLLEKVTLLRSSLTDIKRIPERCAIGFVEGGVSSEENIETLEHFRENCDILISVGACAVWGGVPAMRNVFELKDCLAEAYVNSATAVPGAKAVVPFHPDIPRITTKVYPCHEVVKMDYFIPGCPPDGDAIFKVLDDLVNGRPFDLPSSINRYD
# Sequence of [NiFe] dehydrogenase from Ralstonia eutropha (Cupriavidus necator, UniProt P22317+P22320) (P22317 whole entry): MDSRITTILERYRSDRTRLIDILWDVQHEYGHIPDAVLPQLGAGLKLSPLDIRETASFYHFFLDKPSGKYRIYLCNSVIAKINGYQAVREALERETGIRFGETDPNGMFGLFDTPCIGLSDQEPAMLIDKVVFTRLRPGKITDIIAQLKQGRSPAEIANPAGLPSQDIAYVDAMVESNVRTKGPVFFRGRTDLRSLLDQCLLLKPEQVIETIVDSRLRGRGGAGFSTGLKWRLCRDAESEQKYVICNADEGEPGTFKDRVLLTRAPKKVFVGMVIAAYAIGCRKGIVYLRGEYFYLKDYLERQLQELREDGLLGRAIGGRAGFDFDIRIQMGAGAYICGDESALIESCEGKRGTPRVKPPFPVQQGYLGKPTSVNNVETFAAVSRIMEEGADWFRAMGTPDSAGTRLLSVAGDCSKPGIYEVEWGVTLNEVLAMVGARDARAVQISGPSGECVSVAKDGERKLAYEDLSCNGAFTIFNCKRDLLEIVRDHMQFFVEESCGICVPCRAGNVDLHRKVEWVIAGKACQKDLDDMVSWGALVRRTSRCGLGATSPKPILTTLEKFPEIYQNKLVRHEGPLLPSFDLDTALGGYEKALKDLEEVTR
# [3] = molecular target: T2, phosphine dehydrogenase (PTDH) (Stutzerimonas stutzeri, UniProt O69054); conditions: read-out: Km (NAD^+)
# T2 sequence (O69054 1-336): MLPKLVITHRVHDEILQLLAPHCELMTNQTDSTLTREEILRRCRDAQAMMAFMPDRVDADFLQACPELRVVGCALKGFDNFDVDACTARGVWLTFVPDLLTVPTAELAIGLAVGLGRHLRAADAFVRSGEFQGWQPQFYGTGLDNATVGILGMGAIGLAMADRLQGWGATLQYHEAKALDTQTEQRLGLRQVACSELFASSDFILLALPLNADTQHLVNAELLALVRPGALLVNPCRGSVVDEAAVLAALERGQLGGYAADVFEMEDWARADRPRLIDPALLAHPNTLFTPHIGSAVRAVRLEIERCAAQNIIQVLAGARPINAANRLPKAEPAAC
# [4] = molecular target: AOR enzyme from Thermococcus strain ES-1; conditions: reducing acetic acid to acetaldehyde with reduced methyl viologen
# [5] = tested on: [NiFe] dehydrogenase from Ralstonia eutropha; conditions: same Km expressed as per cent H2
molecule,measurement,setting,value
"NC(=O)c1ccc[n+]([C@@H]2O[C@H](COP(=O)([O-])OP(=O)(O)OC[C@H]3O[C@@H](n4cnc5c(N)ncnc54)[C@H](O)[C@@H]3O)[C@@H](O)[C@H]2O)c1 [NAD+, nicotinamide adenine dinucleotide]","maximum observed reaction rate, Vmax",[1],12.5 mM/min/mg
"NC(=O)c1ccc[n+]([C@@H]2O[C@H](COP(=O)([O-])OP(=O)(O)OC[C@H]3O[C@@H](n4cnc5c(N)ncnc54)[C@H](O)[C@@H]3O)[C@@H](O)[C@H]2O)c1 [NAD^+, nicotinamide adenine dinucleotide]",Km,AOR,63 µM
same,Km,[2]; read-out: Km (NAD^+),560 µM
same,Km,[3],53 µM
CC(=O)O [acetic acid],kinetic rate constant (kcat),[4],1.6 turnovers of the catalyzed reaction per second
[HH] [hydrogen],Km,"[2]; 1.4-5% H2, read-out: Km (hydrogen)",11 to 37 µM
same,Ki,"[2]; hyperbaric conditions, read-out: Ki (inhibition by H2)",1460 µM
hydrogen [H2],"Km (hydrogen), as H2 content",[5],1.4-5 % H2
